{
  "source": "ChEMBL document CHEMBL4825722",
  "about": "“Discovery of Potent Selective Nonzinc Binding Autotaxin Inhibitor BIO-32546” (ACS Med Chem Lett, 2021)",
  "key": {"[1]": {"assay": "AUC (0 to 24 hrs) in C57BL/6 mouse brain at 2.32 mg/kg, iv", "format": "ADME, organism-based", "parameters": "time < 24 hr, route intravenous, dose 2.32 mg/kg"}, "[2]": {"assay": "Total brain to plasma concentration ratio in rat at 10 mg/kg, po measured after 4 hrs", "format": "ADME, organism-based", "conditions": "brain and plasma, read-out: BPR"}, "[3]": {"assay": "Protein binding in C57BL/6 mouse brain assessed as unbound fraction", "format": "ADME, tissue-based"}, "[4]": {"biological_target": "T1, Lysophosphatidic acid receptor 3 (Homo sapiens, UniProt Q9UBY5)", "T1 sequence (Q9UBY5 whole entry)": "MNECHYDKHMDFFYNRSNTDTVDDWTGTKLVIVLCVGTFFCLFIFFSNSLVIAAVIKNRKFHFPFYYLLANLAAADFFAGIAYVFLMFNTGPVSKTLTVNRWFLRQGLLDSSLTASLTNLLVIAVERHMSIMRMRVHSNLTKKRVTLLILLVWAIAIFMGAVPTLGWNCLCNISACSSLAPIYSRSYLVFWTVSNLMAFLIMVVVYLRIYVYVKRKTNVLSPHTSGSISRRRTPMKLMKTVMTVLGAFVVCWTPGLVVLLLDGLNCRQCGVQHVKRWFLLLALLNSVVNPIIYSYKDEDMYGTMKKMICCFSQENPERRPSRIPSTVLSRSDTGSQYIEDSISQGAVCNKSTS", "assay": "Inhibition of LPA3 (unknown origin)"}, "[5]": {"assay": "Volume of distribution at steady state in rat at 1.0 mg/kg, iv", "format": "ADME, organism-based", "conditions": "in vivo, read-out: Vdss"}, "[6]": {"assay": "Cmax in cynomolgus monkey at 1.0 mg/kg, po", "format": "ADME, organism-based, Macaca fascicularis", "parameters": "route oral, dose 1 mg/kg", "conditions": "in vivo"}, "[7]": {"assay": "Tmax in C57BL/6 mouse plasma at 10 mg/kg, po", "format": "ADME, organism-based"}, "[8]": {"assay": "Cmax in C57BL/6 mouse brain at 10 mg/kg, po", "format": "ADME, organism-based", "parameters": "route oral, dose 10 mg/kg"}, "[9]": {"assay": "AUC (0 to 24 hrs) in rat at 10 mg/kg, po", "format": "ADME, organism-based", "parameters": "time < 24 hr, route oral, dose 10 mg/kg", "conditions": "in vivo"}, "[10]": {"assay": "Tmax in rat at 10 mg/kg, po", "format": "ADME, organism-based", "conditions": "in vivo"}, "[11]": {"assay": "Tmax in cynomolgus monkey at 1.0 mg/kg, po", "format": "ADME, organism-based, Macaca fascicularis", "conditions": "in vivo"}, "[12]": {"biological_target": "T2, hERG (KCNH2) (Homo sapiens, UniProt Q12809)", "T2 sequence (Q12809 whole entry)": "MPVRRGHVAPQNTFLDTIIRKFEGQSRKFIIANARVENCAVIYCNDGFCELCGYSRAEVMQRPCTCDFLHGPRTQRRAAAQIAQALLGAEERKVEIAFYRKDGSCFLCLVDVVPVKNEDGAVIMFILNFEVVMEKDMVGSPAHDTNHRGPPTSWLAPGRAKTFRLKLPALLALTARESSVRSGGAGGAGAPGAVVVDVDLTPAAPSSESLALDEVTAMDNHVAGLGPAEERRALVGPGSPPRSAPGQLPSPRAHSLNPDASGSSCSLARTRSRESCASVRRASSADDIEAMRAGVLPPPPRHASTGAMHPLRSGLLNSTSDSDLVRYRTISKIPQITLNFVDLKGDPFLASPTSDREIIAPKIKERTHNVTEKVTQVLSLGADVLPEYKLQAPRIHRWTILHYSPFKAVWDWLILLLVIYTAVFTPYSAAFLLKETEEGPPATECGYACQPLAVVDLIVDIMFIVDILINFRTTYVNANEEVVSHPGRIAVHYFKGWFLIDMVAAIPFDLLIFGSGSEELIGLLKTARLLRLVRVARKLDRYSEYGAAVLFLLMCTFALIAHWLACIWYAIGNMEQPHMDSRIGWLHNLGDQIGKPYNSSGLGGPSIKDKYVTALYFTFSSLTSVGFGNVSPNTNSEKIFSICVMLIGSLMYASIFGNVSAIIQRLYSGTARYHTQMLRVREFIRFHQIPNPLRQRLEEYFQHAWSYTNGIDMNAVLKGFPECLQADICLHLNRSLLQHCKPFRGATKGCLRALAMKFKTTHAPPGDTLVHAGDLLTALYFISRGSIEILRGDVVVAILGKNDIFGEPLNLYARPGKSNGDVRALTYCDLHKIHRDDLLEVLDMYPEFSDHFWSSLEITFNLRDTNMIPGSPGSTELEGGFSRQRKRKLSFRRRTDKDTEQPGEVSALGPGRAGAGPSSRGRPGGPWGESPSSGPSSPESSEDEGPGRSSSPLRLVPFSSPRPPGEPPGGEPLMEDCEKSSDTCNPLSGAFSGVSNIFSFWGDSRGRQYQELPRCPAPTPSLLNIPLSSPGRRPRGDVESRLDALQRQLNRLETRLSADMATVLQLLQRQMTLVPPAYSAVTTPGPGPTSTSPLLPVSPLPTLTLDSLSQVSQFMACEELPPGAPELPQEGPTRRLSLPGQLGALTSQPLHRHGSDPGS", "assay": "Inhibition of human ERG at 1 uM by automated patch-clamp assay relative to control"}, "[13]": {"biological_target": "T3, Sphingosine 1-phosphate receptor 4 (Homo sapiens, UniProt O95977)", "T3 sequence (O95977 whole entry)": "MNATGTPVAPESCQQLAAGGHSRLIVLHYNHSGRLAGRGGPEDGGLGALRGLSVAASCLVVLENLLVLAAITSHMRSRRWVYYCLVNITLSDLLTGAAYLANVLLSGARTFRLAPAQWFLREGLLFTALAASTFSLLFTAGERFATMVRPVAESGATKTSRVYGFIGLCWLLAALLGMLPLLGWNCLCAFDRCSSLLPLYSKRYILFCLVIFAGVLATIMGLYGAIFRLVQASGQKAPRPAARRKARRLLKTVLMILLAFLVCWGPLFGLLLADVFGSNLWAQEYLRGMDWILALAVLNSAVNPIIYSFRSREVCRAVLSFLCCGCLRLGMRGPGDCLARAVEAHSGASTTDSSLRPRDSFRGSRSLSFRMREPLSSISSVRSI", "assay": "Inhibition of S1P4 (unknown origin)"}, "[14]": {"system": "Rattus norvegicus", "assay": "Effect on Sprague-Dawley rat CFA inflammatory […] model assessed as reduction in 20:4 LPA level at 3 mg/kg, po after 6 hrs by LC-MS/MS analysis", "format": "functional", "parameters": "scale not given: the % may be the effect or the level left"}, "[15]": {"biological_target": "Lysophosphatidic acid receptor 2 (Homo sapiens, UniProt Q9HBW0)", "sequence (Q9HBW0 whole entry)": "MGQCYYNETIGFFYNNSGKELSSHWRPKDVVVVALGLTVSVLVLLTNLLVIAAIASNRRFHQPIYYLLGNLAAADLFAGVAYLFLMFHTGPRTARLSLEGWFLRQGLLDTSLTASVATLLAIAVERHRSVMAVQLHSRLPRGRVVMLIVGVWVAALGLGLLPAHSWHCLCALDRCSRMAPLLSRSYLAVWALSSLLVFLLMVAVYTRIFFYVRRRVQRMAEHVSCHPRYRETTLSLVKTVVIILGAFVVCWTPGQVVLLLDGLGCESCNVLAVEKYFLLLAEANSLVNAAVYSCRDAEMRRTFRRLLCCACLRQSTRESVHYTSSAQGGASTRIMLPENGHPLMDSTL", "assay": "Inhibition of LPA2 (unknown origin)"}, "[16]": {"biological_target": "T4, Cytochrome P450 1A2 (Homo sapiens, UniProt P05177)", "T4 sequence (P05177 whole entry)": "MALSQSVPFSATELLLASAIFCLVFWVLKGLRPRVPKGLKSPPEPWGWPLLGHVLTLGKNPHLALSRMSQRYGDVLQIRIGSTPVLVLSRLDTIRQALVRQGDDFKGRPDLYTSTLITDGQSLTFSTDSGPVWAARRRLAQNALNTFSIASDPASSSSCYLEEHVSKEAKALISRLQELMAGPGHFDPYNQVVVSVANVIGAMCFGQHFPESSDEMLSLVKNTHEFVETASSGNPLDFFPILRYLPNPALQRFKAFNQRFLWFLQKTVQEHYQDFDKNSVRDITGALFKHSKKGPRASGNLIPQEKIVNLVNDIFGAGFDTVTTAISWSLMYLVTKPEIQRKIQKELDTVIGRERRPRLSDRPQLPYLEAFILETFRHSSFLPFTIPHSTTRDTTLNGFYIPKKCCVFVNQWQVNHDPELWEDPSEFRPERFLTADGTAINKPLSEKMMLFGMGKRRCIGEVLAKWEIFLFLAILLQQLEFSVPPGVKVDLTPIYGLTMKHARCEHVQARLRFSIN", "assay": "Inhibition of CYP1A2 in human liver microsomes incubated for 15 mins in presence of NADPH by LC-MS/MS analysis", "format": "ADME"}, "[17]": {"biological_target": "Voltage-gated inwardly rectifying potassium channel KCNH2 (Homo sapiens, UniProt Q12809)", "sequence (Q12809 whole entry)": "as the sequence (Q12809 whole entry) above", "assay": "Inhibition of human ERG by automated patch-clamp assay"}, "[18]": {"assay": "Volume of distribution at steady state in dog at 0.2 mg/kg, iv", "format": "ADME, organism-based, Canis lupus familiaris", "conditions": "in vivo, read-out: Vdss"}, "[19]": {"assay": "AUC (0 to 24 hrs) in dog at 0.2 mg/kg, iv", "format": "ADME, organism-based, Canis lupus familiaris", "parameters": "time < 24 hr, route intravenous, dose 0.2 mg/kg", "conditions": "in vivo"}, "[20]": {"assay": "Drug concentration in Sprague-Dawley rat at 0.1 mg/kg, po after 6 hrs by LC-MS/MS analysis", "format": "ADME, organism-based", "conditions": "in vivo, read-out: Drug uptake"}, "[21]": {"assay": "Oral bioavailability in cynomolgus monkey at 1.0 mg/kg", "format": "ADME, organism-based, Macaca fascicularis", "conditions": "in vivo"}, "[22]": {"assay": "Drug concentration in Sprague-Dawley rat at 0.3 mg/kg, po after 6 hrs by LC-MS/MS analysis", "format": "ADME, organism-based", "conditions": "in vivo, read-out: Drug uptake"}, "[23]": {"system": "Rattus norvegicus", "assay": "Effect on po dosed Sprague-Dawley rat CFA inflammatory pain model assessed as reduction in LPA level administered day 2 post CFA challenge and measured after 6 hrs by LC-MS/MS analysis", "conditions": "dose 0.1-10 mg/kg"}, "[24]": {"assay": "Drug concentration in Sprague-Dawley rat at 10 mg/kg, po after 6 hrs by LC-MS/MS analysis", "format": "ADME, organism-based", "conditions": "in vivo, read-out: Drug uptake"}, "[25]": {"assay": "Protein binding in human plasma assessed as unbound fraction at 2 uM by rapid equilibrium dialysis method", "format": "ADME, cell-free"}, "[26]": {"assay": "Protein binding in C57BL/6 mouse plasma assessed as unbound fraction", "format": "ADME, cell-free"}, "[27]": {"assay": "Half life in cynomolgus monkey at 0.2 mg/kg, iv", "format": "ADME, organism-based, Macaca fascicularis", "conditions": "in vivo"}, "[28]": {"assay": "AUC (0 to 24 hrs) in dog at 1.0 mg/kg, po", "format": "ADME, organism-based, Canis lupus familiaris", "parameters": "time < 24 hr, route oral, dose 1 mg/kg", "conditions": "in vivo"}, "[29]": {"assay": "Oral bioavailability in dog at 1.0 mg/kg", "format": "ADME, organism-based, Canis lupus familiaris", "conditions": "in vivo"}, "[30]": {"assay": "Tmax in C57BL/6 mouse brain at 2.32 mg/kg, iv", "format": "ADME, organism-based"}, "[31]": {"biological_target": "T2, hERG (KCNH2)", "assay": "Inhibition of human ERG at 10 uM by automated patch-clamp assay relative to control"}, "[32]": {"assay": "Cmax in rat at 10 mg/kg, po", "format": "ADME, organism-based", "parameters": "route oral, dose 10 mg/kg", "conditions": "in vivo"}, "[33]": {"assay": "Clearance in rat at 1.0 mg/kg, iv", "format": "ADME, organism-based", "conditions": "in vivo, time <=24 hrs"}, "[34]": {"assay": "AUC (0 to 24 hrs) in rat at 1 mg/kg, iv", "format": "ADME, organism-based", "parameters": "time < 24 hr, route intravenous, dose 1 mg/kg", "conditions": "in vivo"}, "[35]": {"biological_target": "Lysophosphatidic acid receptor 1 (Homo sapiens, UniProt Q92633)", "sequence (Q92633 whole entry)": "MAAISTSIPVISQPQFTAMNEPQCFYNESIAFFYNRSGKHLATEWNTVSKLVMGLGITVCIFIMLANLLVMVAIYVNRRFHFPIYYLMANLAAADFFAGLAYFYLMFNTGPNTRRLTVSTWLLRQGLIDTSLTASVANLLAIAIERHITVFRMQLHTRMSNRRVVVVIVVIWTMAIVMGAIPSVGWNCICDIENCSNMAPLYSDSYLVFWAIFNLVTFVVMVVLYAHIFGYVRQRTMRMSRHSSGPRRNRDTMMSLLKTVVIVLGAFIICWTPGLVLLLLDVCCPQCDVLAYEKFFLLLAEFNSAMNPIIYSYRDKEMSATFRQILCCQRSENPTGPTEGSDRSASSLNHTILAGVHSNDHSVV", "assay": "Inhibition of LPA1 (unknown origin)"}},
  "note": "pIC50: −log10 of the molar value.",
  "data": [
    {"compound": "C[C@@H](c1ccc2ccc(O[C@H]3CC[C@@H](C(F)(F)F)CC3)c(C(F)(F)F)c2c1)N1C2CCC1CC(C(=O)O)C2", "note": "(stereo not given in full)", "values": [
      {"measurement": "AUC(0-t) at 24 h", "setting": "[1]", "result": 3020, "unit": "ng·h/mL"},
      {"measurement": "Kp at 4 h", "setting": "[2]", "result": 0.2},
      {"measurement": "Fu", "setting": "[3]", "result": 0.096, "unit": "%"},
      {"measurement": "pIC50", "setting": "[4]", "result": "< 5.00"},
      {"measurement": "Vd", "setting": "[5]", "result": 3, "unit": "L/kg"},
      {"measurement": "Cmax", "setting": "[6]", "result": 89, "unit": "ng/mL"},
      {"measurement": "Tmax", "setting": "[7]", "result": 3, "unit": "h"},
      {"measurement": "Cmax", "setting": "[8]", "result": 823, "unit": "ng/mL"},
      {"measurement": "AUC(0-t) at 24 h", "setting": "[9]", "result": 3970, "unit": "ng·h/mL"},
      {"measurement": "Tmax", "setting": "[10]", "result": 1.6, "unit": "h"},
      {"measurement": "Tmax", "setting": "[11]", "result": 4, "unit": "h"},
      {"measurement": "inhibition at 1 µM", "setting": "[12]", "result": 1.4, "unit": "%"},
      {"measurement": "pIC50", "setting": "[13]", "result": "< 5.00"},
      {"measurement": "Activity", "setting": "[14]", "result": 61, "unit": "%"},
      {"measurement": "pIC50", "setting": "[15]", "result": "< 5.00"},
      {"measurement": "pIC50", "setting": "[16]", "result": "< 5.00"},
      {"measurement": "pIC50", "setting": "[17]", "result": "< 5.00"},
      {"measurement": "Vd", "setting": "[18]", "result": 2, "unit": "L/kg"},
      {"measurement": "AUC(0-t) at 24 h", "setting": "[19]", "result": 1390, "unit": "ng·h/mL"},
      {"measurement": "concentration at 6 h", "setting": "[20]", "result": 0.95, "unit": "ng/mL"},
      {"measurement": "bioavailability", "setting": "[21]", "result": 34, "unit": "%"},
      {"measurement": "concentration at 6 h", "setting": "[22]", "result": 4.3, "unit": "ng/mL"},
      {"measurement": "Activity", "setting": "[23]", "result": "Dose-Dependent Effect"},
      {"measurement": "concentration at 6 h", "setting": "[24]", "result": 188, "unit": "ng/mL"},
      {"measurement": "Fu", "setting": "[25]", "result": 0.66, "unit": "%"},
      {"measurement": "Fu", "setting": "[26]", "result": 0.599, "unit": "%"},
      {"measurement": "half-life", "setting": "[27]", "result": 4, "unit": "h"},
      {"measurement": "AUC(0-t) at 24 h", "setting": "[28]", "result": 6590, "unit": "ng·h/mL"},
      {"measurement": "bioavailability", "setting": "[29]", "result": 69, "unit": "%"},
      {"measurement": "Tmax", "setting": "[30]", "result": 3, "unit": "h"},
      {"measurement": "inhibition at 10 µM", "setting": "[31]", "result": 21.3, "unit": "%"},
      {"measurement": "Cmax", "setting": "[32]", "result": 813, "unit": "ng/mL"},
      {"measurement": "clearance", "setting": "[33]", "result": 29, "unit": "mL/min/kg"},
      {"measurement": "AUC(0-t) at 24 h", "setting": "[34]", "result": 594, "unit": "ng·h/mL"},
      {"measurement": "pIC50", "setting": "[35]", "result": "< 5.00"}
    ]}
  ]
}
